What all share (assay): AK assay 384-well format, Prestwick library screening
For assay [1], the system named is E. coli. It is filed as cell-based, Escherichia coli. The conditions noted are these: Escherichia coli, 3 h.
Assay [2] relates to E. faecium. In kind it is cell-based, Enterococcus faecium. The conditions noted are these: Enterococcus faecium, 3 h.
Assay [3] relates to E. cloacae. It is filed as cell-based, Enterobacter cloacae. The settings on record: Enterobacter cloacae, 3 h.
In assay [4] the test system is P. aeruginosa. In kind it is cell-based, Pseudomonas aeruginosa. The settings on record: Pseudomonas aeruginosa, 3 h.
Assay [5] concerns A. baumannii strain 98-37-09. In kind it is cell-based, Acinetobacter baumannii. The conditions noted are these: Acinetobacter baumannii, 983709, 3 h.
The test system of assay [6] is S. aureus strain USA300-0114. It is filed as cell-based, Staphylococcus aureus. The settings on record: Staphylococcus aureus, USA300, 3 h.
Assay [7] has as its system K. pneumoniae. It is filed as cell-based, Klebsiella pneumoniae. The conditions noted are these: Klebsiella pneumoniae, 3 h.

Counter-ions that a name gives are not always drawn. Like-named read-outs stand apart in the source and are kept apart here.

For the compound `O=C1c2ccccc2C(=O)C1c1ccccc1` [Phenindione], the fold induction at 50 µM in assay [1] (50 μM final drug concentration, planktonic, cutoff for positive 3-fold increase, read-out: AK-based Prestwick Library Screening Results, E. coli (fold increase in extracellular AK activity)) amounted to 1.2; in assay [2] (50 μM final drug concentration, planktonic, cutoff for positive 3-fold increase, read-out: AK-based Prestwick Library Screening Results, E. faecium (fold increase in extracellular AK activity)) it was 0.9; in assay [3] (50 μM final drug concentration, planktonic, cutoff for positive 3-fold increase, read-out: AK-based Prestwick Library Screening Results, E. cloacae (fold increase in extracellular AK activity)), 1.3; in assay [4] (50 μM final drug concentration, planktonic, cutoff for positive 3-fold increase, read-out: AK-based Prestwick Library Screening Results, P. aeruginosa (fold increase in extracellular AK activity)), 0.9; in assay [5] (50 μM final drug concentration, planktonic, cutoff for positive 3-fold increase, read-out: AK-based Prestwick Library Screening Results, A. baumannii (fold increase in extracellular AK activity)), 1.1; in assay [6] (50 μM final drug concentration, planktonic, cutoff for positive 3-fold increase, read-out: AK-based Prestwick Library Screening Results, S. aureus (fold increase in extracellular AK activity)) it was 1.1. Moreover, the fold induction at 50 µM in assay [7] (50 μM final drug concentration, planktonic, cutoff for positive 3-fold increase, read-out: AK-based Prestwick Library Screening Results, K. pneumoniae (fold increase in extracellular AK activity)) came to 1.1.

Take `CN(C)CCC(c1ccccc1)c1ccccn1` (stereo not shown) [Pheniramine maleate]: the fold induction at 50 µM came to 1.4 in assay [1] (planktonic E. coli, 50 μM final drug concentration, 384-well, […], read-out: AK-based Prestwick Library Screening Results: E. coli (increase in extracellular AK activity)); 1 in assay [2] (planktonic E. faecium, 50 μM final drug concentration, 384-well, […], read-out: AK-based Prestwick Library Screening Results: E. faecium (increase in extracellular AK activity)); 1.7 in assay [3] (planktonic E. cloacae, 50 μM final drug concentration, 384-well, […], read-out: AK-based Prestwick Library Screening Results: E. cloacae (increase in extracellular AK activity)); 1 in assay [4] (planktonic P. aeruginosa, 50 μM final drug concentration, 384-well, […], read-out: AK-based Prestwick Library Screening Results: P. aeruginosa (increase in extracellular AK activity)); 1 in assay [5] (planktonic A. baumannii, 50 μM final drug concentration, 384-well, […], read-out: AK-based Prestwick Library Screening Results: A. baumannii (increase in extracellular AK activity)); 1 in assay [6] (planktonic S. aureus, 50 μM final drug concentration, 384-well, […], read-out: AK-based Prestwick Library Screening Results: S. aureus (increase in extracellular AK activity)). Further, in assay [7] (planktonic K. pneumoniae, 50 μM final drug concentration, 384-well, […], read-out: AK-based Prestwick Library Screening Results: K. pneumoniae (increase in extracellular AK activity)), the fold induction at 50 µM worked out at 1.

For the compound `CC(COc1ccccc1)N(CCCl)Cc1ccccc1` (stereo not shown) [Phenoxybenzamine hydrochloride], the fold induction at 50 µM in assay [1] (50 μM final drug concentration, […], read-out: AK-based Prestwick Library Screening Results, E. coli (fold increase in extracellular AK activity)) worked out at 1.4; in assay [2] (50 μM final drug concentration, […], read-out: AK-based Prestwick Library Screening Results, E. faecium (fold increase in extracellular AK activity)), 0.9; in assay [3] (50 μM final drug concentration, […], read-out: AK-based Prestwick Library Screening Results, E. cloacae (fold increase in extracellular AK activity)), 1.4; in assay [4] (50 μM final drug concentration, […], read-out: AK-based Prestwick Library Screening Results, P. aeruginosa (fold increase in extracellular AK activity)) it was 1.1; in assay [5] (50 μM final drug concentration, […], read-out: AK-based Prestwick Library Screening Results, A. baumannii (fold increase in extracellular AK activity)), 1.3; in assay [6] (50 μM final drug concentration, […], read-out: AK-based Prestwick Library Screening Results, S. aureus (fold increase in extracellular AK activity)) it was 1.1. The fold induction at 50 µM in assay [7] (50 μM final drug concentration, […], read-out: AK-based Prestwick Library Screening Results, K. pneumoniae (fold increase in extracellular AK activity)) came to 1.2.

`CN1C(=O)CC(c2ccccc2)C1=O` (stereo not shown) [Phensuximide]: the fold induction at 50 µM in assay [1] (planktonic E. coli, 50 μM final drug concentration, […], read-out: AK-based Prestwick library screening result, E. coli (fold increase in extracellular AK activity)) was 1; in assay [2] (planktonic E. faecium, 50 μM final drug concentration, […], read-out: AK-based Prestwick library screening result, E. faecium (fold increase in extracellular AK activity)) it was 0.9; in assay [3] (planktonic E. cloacae, 50 μM final drug concentration, […], read-out: AK-based Prestwick library screening result, E. cloacae (fold increase in extracellular AK activity)), 1.1; in assay [4] (planktonic P. aeruginosa, 50 μM final drug concentration, […], read-out: AK-based Prestwick library screening result, P. aeruginosa (fold increase in extracellular AK activity)), 0.7; in assay [5] (planktonic A. baumannii, 50 μM final drug concentration, […], read-out: AK-based Prestwick library screening result, A. baumannii (fold increase in extracellular AK activity)), 0.8; in assay [6] (planktonic S. aureus, 50 μM final drug concentration, […], read-out: AK-based Prestwick library screening result, S. aureus (fold increase in extracellular AK activity)) it was 0.7. For the same compound, the fold induction at 50 µM in assay [7] (planktonic K. pneumoniae, 50 μM final drug concentration, […], read-out: AK-based Prestwick library screening result, K. pneumoniae (fold increase in extracellular AK activity)) turned out to be 0.8.

Turning to `Cc1ccc(N(CC2=NCCN2)c2cccc(O)c2)cc1` [Phentolamine hydrochloride], the fold induction at 50 µM in assay [1] (planktonic E. coli, 50 μM final drug concentration, 384-well, cutoff for positive-scoring molecules 3-fold increase, read-out: AK-based Prestwick Library Screening Results: E. coli (increase in extracellular AK activity)) turned out to be 1.4; in assay [2] (planktonic E. faecium, 50 μM final drug concentration, 384-well, cutoff for positive-scoring molecules 3-fold increase, read-out: AK-based Prestwick Library Screening Results: E. faecium (increase in extracellular AK activity)), 1; in assay [3] (planktonic E. cloacae, 50 μM final drug concentration, 384-well, cutoff for positive-scoring molecules 3-fold increase, read-out: AK-based Prestwick Library Screening Results: E. cloacae (increase in extracellular AK activity)) it was 1.2; in assay [4] (planktonic P. aeruginosa, 50 μM final drug concentration, 384-well, cutoff for positive-scoring molecules 3-fold increase, read-out: AK-based Prestwick Library Screening Results: P. aeruginosa (increase in extracellular AK activity)), 1.2; in assay [5] (planktonic A. baumannii, 50 μM final drug concentration, 384-well, cutoff for positive-scoring molecules 3-fold increase, read-out: AK-based Prestwick Library Screening Results: A. baumannii (increase in extracellular AK activity)), 1.4; in assay [6] (planktonic S. aureus, 50 μM final drug concentration, 384-well, cutoff for positive-scoring molecules 3-fold increase, read-out: AK-based Prestwick Library Screening Results: S. aureus (increase in extracellular AK activity)), 1.1. Besides, the fold induction at 50 µM in assay [7] (planktonic K. pneumoniae, 50 μM final drug concentration, 384-well, cutoff for positive-scoring molecules 3-fold increase, read-out: AK-based Prestwick Library Screening Results: K. pneumoniae (increase in extracellular AK activity)) was determined as 1.1.

Regarding `CC(N)C(O)c1ccccc1` (stereo not shown) [Phenylpropanolamine hydrochloride], the fold induction at 50 µM in assay [1] (read-out: AK-based Prestwick Library Screening Results: E. coli (increase in extracellular AK activity)) stood at 0.5; in assay [2] (read-out: AK-based Prestwick Library Screening Results: E. faecium (increase in extracellular AK activity)), 0.8; in assay [3] (read-out: AK-based Prestwick Library Screening Results: E. cloacae (increase in extracellular AK activity)), 0.4; in assay [4] (read-out: AK-based Prestwick Library Screening Results: P. aeruginosa (increase in extracellular AK activity)) it was 0.4; in assay [5] (read-out: AK-based Prestwick Library Screening Results: A. baumannii (increase in extracellular AK activity)) it was 0.4; in assay [6] (read-out: AK-based Prestwick Library Screening Results: S. aureus (increase in extracellular AK activity)), 0.3. For the same compound, the fold induction at 50 µM in assay [7] (read-out: AK-based Prestwick Library Screening Results: K. pneumoniae (increase in extracellular AK activity)) is 0.5.

As for `O=C(O)c1ccccc1C(=O)Nc1ccc(S(=O)(=O)Nc2nccs2)cc1` [Phthalylsulfathiazole], the fold induction at 50 µM in assay [1] (50 μM final drug concentration, cutoff for positive-scoring molecules 3-fold increase, read-out: AK-based Prestwick Library Screening Results, E. coli (fold increase in extracellular AK activity)) was 1.4; in assay [2] (50 μM final drug concentration, cutoff for positive-scoring molecules 3-fold increase, read-out: AK-based Prestwick Library Screening Results, E. faecium (fold increase in extracellular AK activity)), 1; in assay [3] (50 μM final drug concentration, cutoff for positive-scoring molecules 3-fold increase, read-out: AK-based Prestwick Library Screening Results, E. cloacae (fold increase in extracellular AK activity)), 1.2; in assay [4] (50 μM final drug concentration, cutoff for positive-scoring molecules 3-fold increase, read-out: AK-based Prestwick Library Screening Results, P. aeruginosa (fold increase in extracellular AK activity)), 1; in assay [5] (50 μM final drug concentration, cutoff for positive-scoring molecules 3-fold increase, read-out: AK-based Prestwick Library Screening Results, A. baumannii (fold increase in extracellular AK activity)) it was 1.4; in assay [6] (50 μM final drug concentration, cutoff for positive-scoring molecules 3-fold increase, read-out: AK-based Prestwick Library Screening Results, S. aureus (fold increase in extracellular AK activity)), 1.4. Further, the fold induction at 50 µM in assay [7] (50 μM final drug concentration, cutoff for positive-scoring molecules 3-fold increase, read-out: AK-based Prestwick Library Screening Results, K. pneumoniae (fold increase in extracellular AK activity)) was 1.

Source of the values: patent US10004701B2, “Methods and compositions for treating infection” (UNIVERSITY OF ROCHESTER, priority 2012, dated 2018).
